The values that follow come from patent US20210246159A1, “NOVEL FORM OF BARDOXOLONE METHYL” (Johnson Matthey Public Limited Company, priority 2020, published 2021).

The data set can be described thus: Storage stability of the crystalline form at 30° C. / 65% RH in a capped vial. It counts as physicochemical. From the text: The crystalline formic acid solvate of bardoxolone methyl; more particularly, Form A, can be dried by any conventional methods known to one of ordinary skill in the art. In one embodiment, it is desirable to avoid extensive drying of the crystalline formic acid solvate of bardoxolone methyl; more particularly, Form A, to avoid the potential for desolvation. In one embodiment, it is desirable to store the crystalline formic acid solvate of bardoxolone methyl; more particularly, Form A, away from high heat and humidity. Form A remains stable at 30° C. at 65% RH for at least 5 days in a capped vial.

Turning to `COC(=O)[C@]12CCC(C)(C)C[C@H]1[C@H]1C(=O)C=C3[C@@]4(C)C=C(C#N)C(=O)C(C)(C)[C@@H]4CC[C@@]3(C)[C@]1(C)CC2` [Form A, di-formic acid solvate of bardoxolone methyl], the “time Form A remains stable” value is “at least 5 days”.
